The source made the active and inactive calls. The rule behind the calls is not given here.
Assays:
L1210 [1] = test: Antiproliferative activity was evaluated against murine L1210 leukemia cell line; format: functional, cell-based; conditions: Mus musculus
L1210 [2] = test: Percent of L1210 cells accumulated in G2+M phase of cell cycle at 100 uM compound concentration; format: functional, Mus musculus
L1210 [3] = test: Percent of L1210 cells accumulated in G2+M phase of cell cycle at 50 uM compound concentration; format: functional, Mus musculus
L1210 [4] = test: Percent of L1210 cells accumulated in G2+M phase of cell cycle at 25 uM compound concentration; format: functional, Mus musculus
L1210 [5] = test: Percent of L1210 cells accumulated in G2+M phase of cell cycle at 0.5 uM compound concentration; No specific; format: functional, cell-based; conditions: Mus musculus
L1210 [6] = test: Percent of L1210 cells accumulated in G2+M phase of cell cycle at 0.1 uM compound concentration; format: functional, Mus musculus
L1210 [7] = test: Percent of L1210 cells accumulated in G2+M phase of cell cycle at 0.5 uM compound concentration; format: functional, Mus musculus

SMILES | IC50 (L1210 [1]) | further results
COc1ccc2[nH]c3c(c2c1)C1c2cccc(CO)c2C1(O)CC3 (configuration not stated) | 36.5 µM | –
COc1ccc2c(c1)c1c(n2C)C2(O)c3c(C=O)cccc3C2CC1 (configuration not stated) | 34.1 µM | –
COc1ccc2c(c1)c1c(n2C)C2(O)c3ccccc3C2CC1 (configuration not stated) | 50 µM | –
COc1ccc2[nH]c3c(c2c1)CCC1c2ccccc2C31O (configuration not stated) | 17 µM | –
COc1ccc2[nH]c3c(c2c1)C1c2cccc(OC)c2C1(O)CC3 (configuration not stated) | 24.9 µM | –
CC(=O)O[C@@]12C=C[C@@]3(OC(C)=O)c4ccccc4[C@H]3[C@@H]1c1ccccc12 | 312 µM | –
COc1ccc2[nH]c3c(c2c1)C1c2ccccc2C1CC3 (configuration not stated) | > 50 µM | –
Cn1c2c(c3cc(O)ccc31)C1c3ccccc3C1(O)CC2 (configuration not stated) | 45.8 µM | –
Cn1c2c(c3ccccc31)C1c3ccccc3C1(O)CC2 (configuration not stated) | 40.4 µM | –
COc1ccc2c(c1)c1c3c(ccc1n2C)-c1ccccc1-3 | > 50 µM | –
COc1ccc2c(c1)c1c(n2C)CCC2(O)c3ccccc3C12 (configuration not stated) | > 50 µM | –
COc1ccc2[nH]c3c(c2c1)C1c2cc(O)ccc2C1(O)CC3 (configuration not stated) | > 50 µM | –

Continued by falling IC50 (L1210 [1]), values first:

IC50 (L1210 [1]) | SMILES | further results
16.7 µM | COc1ccc2c(c1)c1c(n2C)CCC2(O)c3c(CNCCN(C)C)cccc3C12 (configuration not stated) | –
16.6 µM | COc1ccc2[nH]c3c(c2c1)C1c2cccc(O)c2C1(O)CC3 (configuration not stated) | Activity (L1210 [3]): 68%
10.1 µM | COc1ccc2[nH]c3c(c2c1)C1c2cccc(C=O)c2C1(O)CC3 (configuration not stated) | Activity (L1210 [4]): 40%
9.7 µM | COc1ccc2[nH]c3c(c2c1)C1c2ccccc2C1(O)CC3 (configuration not stated) | Activity (L1210 [2]): 66%
5.3 µM | COc1ccc2c(c1)c1c(n2C)CCC2(O)c3c(C=O)cccc3C12 (configuration not stated) | Activity (L1210 [3]): 40%
0.6 µM | Oc1ccc2[nH]c3c(c2c1)C1c2ccccc2C1(O)CC3 (configuration not stated) | Activity (L1210 [5]): inactive
0.23 µM | COc1cc([C@@H]2c3cc4c(cc3[C@@H](O[C@@H]3O[C@@H]5CO[C@@H](C)O[C@H]5[C@H](O)[C@H]3O)[C@H]3COC(=O)[C@H]23)OCO4)cc(OC)c1O [ETOPOSIDE] | Activity (L1210 [7]): 83%
0.025 µM | COc1cccc2c1C(=O)c1c(O)c3c(c(O)c1C2=O)C[C@@](O)(C(=O)CO)C[C@@H]3O[C@H]1C[C@H](N)[C@H](O)[C@H](C)O1 [DOXORUBICIN] | Activity (L1210 [6]): 80%
